Laboratory results taken from US10251394B2, “Molecules having pesticidal utility, and intermediates, compositions, and processes, related thereto” (Dow AgroSciences LLC, priority 2016, dated 2019).

What was measured:
Type in all cases: in vivo
[1] = test system: Yellow Fever Mosquito (Aedes aegypti); test: Bioassay on Yellow Fever Mosquito (YFM) larvae, 96-well plate; conditions: Table ABC
How it was run: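 About 1-day-old larvae in water with liver powder were added to wells holding compound from a 4000 ppm DMSO master diluted in 90:10 water:acetone. Plates covered and kept at room temperature for 3 days, then each well scored for mortality on a rating scale.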

[2] = test system: Beet Armyworm (Spodoptera exigua); test: Bioassay on Beet Armyworm (BAW), 128-well diet tray assay; conditions: Beet Armyworm, Table ABC, read-out: BAW rating
How it was run: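 Percent mortality, averaged over eight wells, was scored after five to seven days at 25° C under 14:10 light-dark. Each well's diet carried 50 μg/cm^2 of test molecule applied in acetone-water (90:10) and dried before one to five second-instar larvae were added.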

[3] = test system: Cabbage Looper (Trichoplusia ni); test: Bioassay on Cabbage Looper (CL), 128-well diet tray assay; conditions: Cabbage Looper, Table ABC, read-out: CL rating
How it was run: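 Mortality after five to seven days at 25° C (14:10 photoperiod), averaged over eight wells per compound. Diet in each well carried 50 μg/cm^2 of dried test molecule and received one to five second-instar larvae.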

CN(CC(F)(F)F)C(=O)C1(NC(=O)c2ccc(/C(F)=C/C(c3cc(Cl)c(F)c(Cl)c3)C(F)(F)F)cc2C(F)(F)F)CC1 (stereo not drawn) [F114, (Z)-4-(3-(3,5-Dichloro-4-fluorophenyl)-1,4,4,4-tetrafluorobut-1-en-1-yl)-N-(1-(methyl(2,2,2-trifluoroethyl)carbamoyl)cyclopropyl)-2-(trifluoromethyl)benzamide]
YFM rating [1]: A (80-100) | pest or weed control at 50 µg/cm2 [2]: 50 to 100% | pest or weed control at 50 µg/cm2 [3]: 50 to 100%

CN(CC(F)(F)F)C(=O)C1(NC(=O)c2ccc(/C(F)=C/C(c3cc(Cl)cc(Cl)c3)C(F)(F)F)cc2C(F)(F)F)CC1 (stereo not drawn) [F115, (Z)-4-(3-(3,5-Dichlorophenyl)-1,4,4,4-tetrafluorobut-1-en-1-yl)-N-(1-(methyl(2,2,2-trifluoroethyl)carbamoyl)cyclopropyl)-2-(trifluoromethyl)benzamide]
YFM rating [1]: B (More than 0-Less than 80) | pest or weed control at 50 µg/cm2 [2]: 50 to 100% | pest or weed control at 50 µg/cm2 [3]: 50 to 100%

O=C(NC1(C(=O)NCC(F)(F)F)CC1)c1ccc(/C(F)=C/C(c2cc(Cl)cc(Br)c2)C(F)(F)F)cc1C(F)(F)F (stereo not drawn) [F116, (Z)-4-(3-(3-Bromo-5-chlorophenyl)-1,4,4,4-tetrafluorobut-1-en-1-yl)-N-(1-((2,2,2-trifluoroethyl)carbamoyl)cyclopropyl)-2-(trifluoromethyl)benzamide]
YFM rating [1]: A (80-100) | pest or weed control at 50 µg/cm2 [2]: 50 to 100% | pest or weed control at 50 µg/cm2 [3]: 50 to 100%

CN(CC(F)(F)F)C(=O)C1(NC(=O)c2ccc(/C(F)=C/C(c3cc(Br)c(Cl)c(Br)c3)C(F)(F)F)cc2C(F)(F)F)CC1 (stereo not drawn) [F118, (Z)-4-(3-(4-Dibromo-4-chlorophenyl)-1,4,4,4-tetrafluorobut-1-en-1-yl)-N-(1-(methyl(2,2,2-trifluoroethyl)carbamoyl)cyclopropyl)-2-(trifluoromethyl)benzamide]
YFM rating [1]: B (More than 0-Less than 80) | pest or weed control at 50 µg/cm2 [2]: 50 to 100% | pest or weed control at 50 µg/cm2 [3]: 50 to 100%

Cc1cc(C(/C=C(\F)c2ccc(C(=O)NC3(C(=O)N(C)CC(F)(F)F)CC3)c(C(F)(F)F)c2)C(F)(F)F)cc(C)c1Cl (stereo not drawn) [F119, (Z)-4-(3-(4-Chloro-3,5-dimethylphenyl)-1,4,4,4-tetrafluorobut-1-en-1-yl)-N-(1-(methyl(2,2,2-trifluoroethyl)carbamoyl)cyclopropyl)-2-(trifluoromethyl)benzamide]
YFM rating [1]: B (More than 0-Less than 80) | pest or weed control at 50 µg/cm2 [2]: 50 to 100% | pest or weed control at 50 µg/cm2 [3]: 50 to 100%

CN(CC(F)(F)F)C(=O)C1(NC(=O)c2ccc(/C(F)=C/C(c3ccc(Cl)c(Cl)c3)C(F)(F)F)cc2C(F)(F)F)CC1 (stereo not drawn) [F120, (Z)-4-(3-(3,4-Dichlorophenyl)-1,4,4,4-tetrafluorobut-1-en-1-yl)-N-(1-(methyl(2,2,2-trifluoroethyl)carbamoyl)cyclopropyl)-2-(trifluoromethyl)benzamide]
YFM rating [1]: B (More than 0-Less than 80) | pest or weed control at 50 µg/cm2 [2]: 50 to 100% | pest or weed control at 50 µg/cm2 [3]: 50 to 100%

O=C(CNC(=O)c1ccc(/C(F)=C/C(c2cc(Cl)cc(Br)c2)C(F)(F)F)cc1C(F)(F)F)NCC(F)(F)F (stereo not drawn) [F122, (Z)-4-(3-(3-Bromo-5-chlorophenyl)-1,4,4,4-tetrafluorobut-1-en-1-yl)-N-(2-oxo-2-((2,2,2-trifluoroethyl)amino)ethyl)-2-(trifluoromethyl)benzamide]
YFM rating [1]: B (More than 0-Less than 80) | pest or weed control at 50 µg/cm2 [2]: 50 to 100% | pest or weed control at 50 µg/cm2 [3]: 50 to 100%

CN(CC(F)(F)F)C(=O)C1(NC(=O)c2ccc(/C(F)=C/C(c3ccc(Br)c(Br)c3)C(F)(F)F)cc2C(F)(F)F)CC1 (stereo not drawn) [F130, (Z)-4-(3-(3,4-Dibromophenyl)-1,4,4,4-tetrafluorobut-1-en-1-yl)-N-(1-(methyl(2,2,2-trifluoroethyl)carbamoyl)cyclopropyl)-2-(trifluoromethyl)benzamide]
YFM rating [1]: A (80-100) | pest or weed control at 50 µg/cm2 [2]: 50 to 100% | pest or weed control at 50 µg/cm2 [3]: 50 to 100%

O=C(NC1(C(=O)NCC(F)(F)F)CC1)c1ccc(/C(F)=C/C(c2ccc(F)c(Cl)c2)C(F)(F)F)cc1C(F)(F)F (stereo not drawn) [F131, (Z)-4-(3-(3-Chloro-4-fluorophenyl)-1,4,4,4-tetrafluorobut-1-en-1-yl)-N-(1-((2,2,2-trifluoroethyl)carbamoyl)cyclopropyl)-2-(trifluoromethyl)benzamide]
YFM rating [1]: A (80-100) | pest or weed control at 50 µg/cm2 [2]: 50 to 100% | pest or weed control at 50 µg/cm2 [3]: 50 to 100%

C[C@@H](NC(=O)c1ccc(/C(F)=C/C(c2ccc(F)c(Cl)c2)C(F)(F)F)cc1C(F)(F)F)C(=O)NCC(F)(F)F (stereo partly drawn) [F132, 4-((Z)-3-(3-Chloro-4-fluorophenyl)-1,4,4,4-tetrafluorobut-1-en-1-yl)-N—((R)-1-oxo-1-((2,2,2-trifluoroethyl)amino)propan-2-yl)-2-(trifluoromethyl)benzamide]
YFM rating [1]: B (More than 0-Less than 80) | pest or weed control at 50 µg/cm2 [2]: 50 to 100% | pest or weed control at 50 µg/cm2 [3]: 50 to 100%

O=C(NC1(C(=O)NCC(F)(F)F)CC1)c1ccc(/C(F)=C/C(c2ccc(Cl)c(F)c2)C(F)(F)F)cc1C(F)(F)F (stereo not drawn) [F136, (Z)-4-(3-(4-Chloro-3-fluorophenyl)-1,4,4,4-tetrafluorobut-1-en-1-yl)-N-(1-((2,2,2-trifluoroethyl)carbamoyl)cyclopropyl)-2-(trifluoromethyl)benzamide]
YFM rating [1]: B (More than 0-Less than 80) | pest or weed control at 50 µg/cm2 [2]: 50 to 100% | pest or weed control at 50 µg/cm2 [3]: 50 to 100%

CN(CC(F)(F)F)C(=O)CNC(=O)c1ccc(/C(F)=C/C(c2cc(Cl)cc(Br)c2)C(F)(F)F)cc1C(F)(F)F (stereo not drawn) [F137, (Z)-4-(3-(3-Bromo-5-chlorophenyl)-1,4,4,4-tetrafluorobut-1-en-1-yl)-N-(2-(methyl(2,2,2-trifluoroethyl)amino)-2-oxoethyl)-2-(trifluoromethyl)benzamide]
YFM rating [1]: B (More than 0-Less than 80) | pest or weed control at 50 µg/cm2 [2]: 50 to 100% | pest or weed control at 50 µg/cm2 [3]: 50 to 100%

C[C@@H](NC(=O)c1ccc(/C(F)=C/C(c2ccc(Cl)c(Br)c2)C(F)(F)F)cc1C(F)(F)F)C(=O)NCC(F)(F)F (stereo partly drawn) [F138, 4-((Z)-3-(3-Bromo-4-chlorophenyl)-1,4,4,4-tetrafluorobut-1-en-1-yl)-N—((R)-1-oxo-1-((2,2,2-trifluoroethyl)amino)propan-2-yl)-2-(trifluoromethyl)benzamide]
YFM rating [1]: A (80-100) | pest or weed control at 50 µg/cm2 [2]: 50 to 100% | pest or weed control at 50 µg/cm2 [3]: 50 to 100%

O=C(NC1(C(=O)NCC(F)(F)F)CC1)c1ccc(/C(F)=C/C(c2ccc(Cl)c(Br)c2)C(F)(F)F)cc1C(F)(F)F (stereo not drawn) [F139, (Z)-4-(3-(3-Bromo-4-chlorophenyl)-1,4,4,4-tetrafluorobut-1-en-1-yl)-N-(1-((2,2,2-trifluoroethyl)carbamoyl)cyclopropyl)-2-(trifluoromethyl)benzamide]
YFM rating [1]: A (80-100) | pest or weed control at 50 µg/cm2 [2]: 50 to 100% | pest or weed control at 50 µg/cm2 [3]: 50 to 100%

C[C@@H](NC(=O)c1ccc(/C(F)=C/C(c2ccc(F)c(C(F)(F)F)c2)C(F)(F)F)cc1C(F)(F)F)C(=O)NCC(F)(F)F (stereo partly drawn) [F141, N—((R)-1-Oxo-1-((2,2,2-trifluoroethyl)amino)propan-2-yl)-4-((Z)-1,4,4,4-tetrafluoro-3-(4-fluoro-3-(trifluoromethyl)phenyl)but-1-en-1-yl)-2-(trifluoromethyl)benzamide]
YFM rating [1]: A (80-100) | pest or weed control at 50 µg/cm2 [2]: 50 to 100% | pest or weed control at 50 µg/cm2 [3]: 50 to 100%
